# In patent publication US9486461B2, “Methods and compositions for inducing apoptosis by stimulating ER stress” (UNIVERSITY OF SOUTHERN CALIFORNIA, priority 2007, dated 2016):
# Entries after “also recorded” stand apart in the source; their conditions may differ.
# Columns and labels:
# human glioblastoma cells = test: Induction of apoptosis in human glioblastoma cells (FIG. 19); assay type: cell-based
# Description: In the figure, DMC stands for 4-[5-(2,5-dimethylphenyl)-3-(trifluoromethyl)-1H-pyrazol-1-yl]benzenesulfonamide; DBrC stands for 4-[5-(2,5-dibromophenyl)-3-(trifluoromethyl)-1H-pyrazol-1-yl]benzenesulfonamide; and DTF3C stands for 4-[5-(2,5-ditrifluoromethylphenyl)-3-(trifluoromethyl)-1H-pyrazol-1-yl]benzenesulfonamide.
# U87 glioblastoma tumors [1] = test: Tumor growth in xenograft nude mouse model; assay type: in vivo, nude mice; conditions: daily chow for DMC, 40 mg/kg for rofecoxib, n=5
# Experimental: Once palpable tumors had formed, the animals received daily chow supplemented with DMC, rofecoxib, or no drug. Tumor size was determined every three days. Shown is the average (mean±SD) tumor volume in each group (n=5). Asterisks (**): p<0.01 between control and DMC-treated animals on day 42.
# U87 glioblastoma tumors [2] = test: TUNEL assay of xenograft tumor tissue; conditions: U87 xenograft, short-term drug treatment
# [3] = tested on: CHOP, GRP78, caspase 4 in U251 glioblastoma cells; test: Western blot of ER stress indicators in U251 cells; assay type: cell-based, human; conditions: for CHOP expression, time kinetics: U251, 50 μmol/L, 4 h up to 24 h; for increase in CHOP or GRP78 protein, concentration dependence: U251, 15 hours, concentrations up to 75 or 100 μmol/L
# Experimental: U251 glioblastoma cells were cultured in the presence of 1 μM thapsigargin (Tg) or 60 μM DMC for various times, as indicated. Total cell lysates were prepared and analyzed by Western blot with specific antibodies to the ER stress proteins GRP78, CHOP, and caspase 4 (Casp 4). Actin was used as a loading control.
# Shown are (A) time kinetics at 50 μM of each drug, and (B) concentration dependence after 15 hours of incubation.
# Shown are (FIG. 7A) time kinetics at 50 μM of each drug, and (FIG. 7B), concentration dependence after 15 hours of incubation.
# U251 glioblastoma cells were cultured for 24 hours in the presence of increasing concentrations of (A) bortezomib (BZM) or (B) DMC. Total cell lysates were analyzed by Western blot with specific antibodies to ubiquitin, GRP78, CHOP, and caspase 4. Actin was used as a loading control.
# Total cell lysates were prepared by lysis of cells with radioimmunoprecipitation assay buffer (28), and protein concentrations were determined using the bicinchoninic acid protein assay reagent (Pierce, Rockford, Ill.). For Western blot analysis, 50 Ag of each sample were processed as described (29). The primary antibodies were purchased from Cell Signaling Technologies (Beverly, Mass.), Cayman Chemical (Ann Arbor, Mich.), or Santa Cruz Biotechnology, Inc. (Santa Cruz, Calif.) and used according to the manufacturer's recommendations. The secondary antibodies were coupled to horseradish peroxidase and detected by chemiluminescence using the SuperSignal West substrate from Pierce. All immunoblots were repeated at least once to confirm the results.
# Total cell lysates were prepared and analyzed by Western blot analysis as described earlier (19). Immunohistochemical analysis of protein expression in tumor tissues was performed with the use of the Vectastain avidin-biotin complex method kit (Vector Laboratories) as described previously (32). The primary antibodies were purchased from Cell Signaling Technology or Santa Cruz Biotechnology, Inc. and used according to the manufacturers' recommendations. All immunoblots and stainings were repeated at least once to confirm the results.
# U251 glioblastoma cells [4] = test: MTT assay, U251; assay type: cell-based, human; conditions: U251, 48 hours, concentrations of up to 100 μmol/L
# Experimental: U251 glioblastoma cells were treated with different drugs, and various parameters of cell growth and cell death were comparatively analyzed. As controls, cells remained either non-treated (Co) or were treated with the solvent DMSO alone. (FIG. 8A) Cells were treated with 30 or 50 μM DMC for 48 hours and the effects on cell growth/survival and on cell death were determined by various assays. […] Below the three panels, the expression levels of the ER stress indicators CHOP, GRP78, and caspase 4 at the end of the 48 hour drug treatment is shown, as determined by Western blot analysis with specific antibodies (actin served as a loading control. (FIG. 8B) Cells were treated with various concentrations of different drugs for 48 hours, as indicated, and cell death was measured with the cell death ELISA kit. (FIG. 8C) Cells were treated with DMC or various coxibs and traditional NSAIDs for 48 hours, as indicated, and cell growth and survival was determined with the conventional MTT assay (control, non-treated cells were set at 100%). MTT assays were performed in 96-well plates with the use of 3.0-8.0×10^3 cells per well as described in detail elsewhere (34). In parallel, the expression levels of CHOP and GRP78 protein were determined by Western blot analysis. […]
# 3-(4,5-Dimethylthiazol-2-yl)-2,5-diphenyltetrazolium bromide (MTT) assays were performed in 96-well plates with the use of 3.0×10^3 to 8.0×10^3 cells per well as described in detail elsewhere (19).
# [5] = tested on: CHOP protein in U87 glioblastoma tumor tissue; test: Immunohistochemical staining for CHOP in xenograft tumor tissue; assay type: in vivo, nude mice; conditions: U87 xenograft
# Description: In all cases, representative sections are shown.
# Immunohistochemical analysis of protein expression in tumor tissues was done with the use of the Vectastain avidin-biotin complex method kit (Vector Laboratories, Burlingame, Calif.) according to the manufacturer's instructions. This procedure uses biotinylated secondary antibodies and a preformed avidin: biotinylated enzyme complex that has been termed the avidin-biotin complex method technique. As the primary antibody, we used anti-CHOP antibody (Santa Cruz Biotechnology) diluted 1:100 in 2% normal goat blocking serum.
# [6] = tested on: cytoplasmic calcium levels in U251 cells; test: Cytoplasmic calcium imaging (Fura-2/AM); assay type: cell-based, human; conditions: 100 μmol/L of each drug, Fura-2/AM loaded cells
# Experimental: (A) U251 cells were treated with DMC or various coxibs and NSAIDs, and changes in intracellular calcium levels were recorded as described in Materials & Methods. […] Arrows indicate timepoint of drug addition. […] Essentially similar results were also obtained with the LN229 cell line.
# The cells were loaded by incubating them with […] Fura-2/AM (Invitrogen) for 30 min at room temperature in external solution containing 138 mmol/L NaCl, 5.6 mmol/L KCl, 1.2 mmol/L MgCl2, 2.6 mmol/L CaCl2, 10 mmol/L HEPES, and 4 mmol/L glucose (pH 7.4). After loading, the cells were rinsed and transferred to the imaging setup. The cells were treated with individual drugs for 10 s, whereas fluorescence was elicited with the excitation wavelength alternating between 350 and 380 nm, using a Polychromator V (TILL Photonics GmbH, Grafelfing, Germany) to provide illumination via a Zeiss Axiovert 100 microscope with a Zeiss Fluar 40 oil objective (Carl Zeiss, Jena, Germany). Images were captured using a Cascade 512B CCD camera (Photometrics, Tucson, Ariz.) controlled with MetaFluor software (Molecular Devices, Sunnyvale, Calif.) at 0.5 Hz acquisition frequency. Ratios of the images obtained at 350 and 380 nm excitation were used to show changes in the cytoplasmic calcium concentration, according to the principles developed by Grynkiewicz et al. (31).
# U251 glioblastoma cells [7] = test: Cell death ELISA, U251; assay type: cell-based, human; conditions: U251, 48 hours, concentrations of up to 100 μmol/L
# Experimental: U251 glioblastoma cells were treated with different drugs, and various parameters of cell growth and cell death were comparatively analyzed. As controls, cells remained either non-treated (Co) or were treated with the solvent DMSO alone. (FIG. 8A) Cells were treated with 30 or 50 μM DMC for 48 hours and the effects on cell growth/survival and on cell death were determined by various assays. […] Below the three panels, the expression levels of the ER stress indicators CHOP, GRP78, and caspase 4 at the end of the 48 hour drug treatment is shown, as determined by Western blot analysis with specific antibodies (actin served as a loading control. (FIG. 8B) Cells were treated with various concentrations of different drugs for 48 hours, as indicated, and cell death was measured with the cell death ELISA kit. (FIG. 8C) Cells were treated with DMC or various coxibs and traditional NSAIDs for 48 hours, as indicated, and cell growth and survival was determined with the conventional MTT assay (control, non-treated cells were set at 100%). MTT assays were performed in 96-well plates with the use of 3.0-8.0×10^3 cells per well as described in detail elsewhere (34). In parallel, the expression levels of CHOP and GRP78 protein were determined by Western blot analysis.
# Apoptosis in cell cultures in vitro was determined by using the Cell Death Detection ELISA kit (Roche Diagnostics, Indianapolis, Ind.) according to the manufacturer's instructions. This immunoassay specifically detects the histone region (H1, H2A, H2B, H3, and H4) of mononucleosomes and oligonucleosomes that are released during apoptosis. Ninety-six-well plates were seeded with 1,000 cells per well and read at 405 nm in a Microplate Autoreader (Model EL 311 SX; Bio-Tek Instruments, Inc., Winooski, Vt.).
# [8] = tested on: Tumor-associated Brain Endothelial Cells (TuBEC); test: Trypan blue exclusion, tumor-associated brain endothelial cells; assay type: cell-based
# Experimental: After drug treatment the cells were incubated for another 12 days in the absence of drug, in order to determine their long-term survival; at that time cytotoxicity was evaluated using the trypan blue exclusion technique. Results are presented as number of viable cells per group.
# Tumor-associated Brain Endothelial Cells (TuBEC) were treated with TMZ (300 uM) and 20 uM DMC for 48 hours. The drugs were removed and cells were incubated for another 12 days; at that time cytotoxicity was evaluated using the trypan blue exclusion technique. Results are presented as number of viable cells per group.
smiles,measurement,setting,value
"NS(=O)(=O)c1ccc(-n2nc(C(F)(F)F)cc2-c2cc(Br)ccc2Br)cc1 [DBrC, 4-[5-(2,5-dibromophenyl)-3-(trifluoromethyl)-1H-pyrazol-1-yl]benzenesulfonamide]",relative ability to induce apoptosis / cell killing effect compared to DMC,human glioblastoma cells,surprisingly potent cell killing effect
"NS(=O)(=O)c1ccc(-n2nc(C(F)(F)F)cc2-c2cc(C(F)(F)F)ccc2C(F)(F)F)cc1 [DTF3C, 4-[5-(2,5-ditrifluoromethylphenyl)-3-(trifluoromethyl)-1H-pyrazol-1-yl]benzenesulfonamide]",relative ability to induce apoptosis / cell killing effect compared to DMC,human glioblastoma cells,surprisingly potent cell killing effect; also recorded: most potent compound
"CS(=O)(=O)c1ccc(C2=C(c3ccccc3)C(=O)OC2)cc1 [rofecoxib, 4-(4′-methylsulfonylphenyl)-3-phenyl-2-(5H)-furanone]",tumor growth on longer-term therapy,U87 glioblastoma tumors [1],not
same,apoptosis in the tumor tissue,U87 glioblastoma tumors [2],did not display elevated levels of apoptosis
same,"CHOP expression, time kinetics",[3],neither rofecoxib nor valdecoxib at the same concentration resulted in any detectable CHOP expression
same,"increase in CHOP or GRP78 protein, concentration dependence",[3],neither rofecoxib nor valdecoxib was able to stimulate any detectable increase
same,detectable effect on cell growth and survival (MTT),U251 glioblastoma cells [4],none
same,CHOP staining of tumor tissues,"[5]; 30-180 mg/kg per day for 50 h, DMC and celecoxib already at lowest dosages",consistently negative
same,CHOP protein expression in tumor tissue,[5]; animals fed drug for 50 h,no such increase was observed
same,elevation of cytoplasmic calcium levels,[6],none
same,induction of cell death/apoptosis (cell death ELISA),U251 glioblastoma cells [7],did not induce apoptosis
Cn1nnc2c(C(N)=O)ncn2c1=O [Temozolomide],cytotoxicity on tumor-associated brain endothelial cells,[8],little cytotoxicity
COc1ccc2c(c1)c(CC(=O)O)c(C)n2C(=O)c1ccc(Cl)cc1 [indomethacin],detectable effect on cell growth and survival (MTT),U251 glioblastoma cells [4],none
same,elevation of cytoplasmic calcium levels,[6],none
same,induction of cell death/apoptosis (cell death ELISA),U251 glioblastoma cells [7],did not induce apoptosis
"Cc1onc(-c2ccccc2)c1-c1ccc(S(N)(=O)=O)cc1 [valdecoxib, 4-[5-Methyl-3-phenylisoxazol-4-yl]-benzenesulfonamide]","CHOP expression, time kinetics",[3],neither rofecoxib nor valdecoxib at the same concentration resulted in any detectable CHOP expression
same,"increase in CHOP or GRP78 protein, concentration dependence",[3],neither rofecoxib nor valdecoxib was able to stimulate any detectable increase
same,detectable effect on cell growth and survival (MTT),U251 glioblastoma cells [4],none
same,elevation of cytoplasmic calcium levels,[6],none
same,induction of cell death/apoptosis (cell death ELISA),U251 glioblastoma cells [7],did not induce apoptosis
C/C=C(/C)C(=O)O[C@H]1C(C)=C2[C@H]([C@@H]1OC(=O)CCCCCCC)[C@@](C)(OC(C)=O)C[C@H](OC(=O)CCC)[C@@]1(O)[C@H]2OC(=O)[C@@]1(C)O [thapsigargin],time at which activation (cleavage) of caspase-4 was first noted,"[3]; U251, 1 μM thapsigargin or 60 μM DMC",~24 h
same,CHOP and GRP78 expression levels,"[3]; U251, 1 μM thapsigargin or 60 μM DMC, prominent increase at 6 h and thereafter",substantially elevated
CC1=C(CC(=O)O)c2cc(F)ccc2/C1=C\c1ccc([S+](C)[O-])cc1 (stereo not shown) [sulindac],detectable effect on cell growth and survival (MTT),U251 glioblastoma cells [4],none
same,elevation of cytoplasmic calcium levels,[6],none
same,induction of cell death/apoptosis (cell death ELISA),U251 glioblastoma cells [7],did not induce apoptosis
CC(C(=O)O)c1ccc(-c2ccccc2)c(F)c1 (stereo not shown) [flurbiprofen],detectable effect on cell growth and survival (MTT),U251 glioblastoma cells [4],none
same,elevation of cytoplasmic calcium levels,[6],none
same,induction of cell death/apoptosis (cell death ELISA),U251 glioblastoma cells [7],did not induce apoptosis
